Assay results taken from patent publication US20260000766A1, “ULTRASOUND OPTOGENETIC COMPOSITIONS AND METHODS” (BOARD OF REGENTS, THE UNIVERSITY OF TEXAS SYSTEM, priority 2022, published 2026).

Test: Fluorescence spectrum tests of L012 at different pH and H2O2 concentration
Type: physicochemical
Experimental: The fluorescence spectrum tests of L012 at different pH and H2O2 concentration. the quantum yield of the L012 solution at different Ph was investigated. 1 mL L012 solution (0.5 mg/mL) with pH 7.4, 8.5, and 10.0 was mixed with H2O2, where the final concentration of H2O2 was 250 μM. The fluorescence spectrum was recorded via Fluorolog3 Fluorometer. In addition, we also investigated the quantum yield of the L012 solution with different H2O2 concentrations at pH 7.4. 1 mL L012 solution (0.5 mg/mL) with different H2O2 concentrations (50, 250, and 500 μM) at pH 7.4 was prepared at first, and the fluorescence spectrum was also recorded via Fluorolog3 Fluorometer.

Nc1c(-c2ccccc2)nc(Cl)c2c([O-])n[nH]c(=O)c12.[Na+] [L012, L012 sodium salt]
improvement of fluorescence intensity (H2O2 concentration increased from 50 to 500 μM): around four | increase of fluorescence intensity (pH changed from 7.4 to 10): around 30%
